Laboratory results reported in PMC11455950, “Effects of SZV-2649, a new multiple ion channel inhibitor mexiletine analogue” (Scientific Reports, 2024).
Values joined by “and” are separate entries in the source; they are usually repeats but may differ in a detail not shown here. Identical values can stand only once.

What was measured:
anesthetized dogs = assay: Atrial fibrillation induced by carbachol infusion and burst stimulation in anesthetized dogs; format: in vivo, dog; design: key to AF converted to SR? / AF reinduced?: N, response not observed; Y, response observed
Description: The effect of SZV-2649 was further investigated in carbachol-infused and programmed electrical stimulation-induced (i.e. 800/min atrial burst stimulation) acute atrial fibillation model in anesthetized dogs.
In the atrial fibrillation experiments, at least 5–6 dogs for control and test groups, (respectively) were used. Following 0.5 µg/kg sufentanyl premedication and […] i.v. pentobarbital anaesthesia induction, left thoracotomy was performed on all animals. Dogs were endotracheally intubated and mechanically ventilated (UGO Basile respirator; Biological Research Apparatus, Italy) Physiological parameters (non-invasive blood pressure, SpO2, ECG) were continuously monitored during surgery and experiments (InnoCare-VET Patient Care Monitor; Budapest, Hungary). The ECGs were recorded using precordial leads and were digitized and stored on a computer for off-line analysis using National Instruments data acquisition hardware (National Instruments, Austin, Texas, USA) and SPEL Advanced Haemosys software (version 3.2, MDE Heidelberg GmbH, Germany). Under pentobarbital anaesthesia, two pacemaker electrodes (Biotronik Solia S 60; Biotronik Ltd., Hungary) were positioned epicardially into the left atrial appendage and apex of the left ventricle, respectively, and electrodes were connected to pacemakers (Effecta D; Biotronik Hungary Ltd., Hungary). Pacemakers were programmed in VVI mode using Biotronik IC: 4808 A-Renamic programmer to prevent the potentially bradycardic effect of carbachol leading to hemodynamic instability. Atrial and ventricular thresholds were measured before AF induction in all animals. Ventricular and atrial pacing were set to three times the measured threshold. AF inducibility were tested in both groups using a control set (25 times) of 10-second-long rapid atrial bursts (800 beats/min, at threefold threshold). Following 25 atrial burst stimuli, 2 × 2 µg/kg loading dose of intravenous carbachol was administered followed by an 8 µg/kg/h maintenance dose. Atrial fibrillation was induced using 10-second-long atrial burst stimuli in the presence of carbachol in both groups of dogs. […] In these experiments, we investigated whether AF was converted to SR by the test drug(s). All intravenous infusions were performed using a programmable infusion pump (Terufusion TE-3; Terumo Europe, Leuven, Belgium).

anesthetized rats = assay: Coronary artery occlusion/reperfusion-induced ventricular arrhythmias in anesthetized rats; format: in vivo, rat
Text: The effects of SZV-2649 were further studied in the acute ischemia-induced ventricular arrhythmia model in anasthetized rats. Mexiletine and dofetilide were used as reference compounds for comparison.
The surgical procedure was based on a modified method described in detail in Gömöri et al. (2020)[62]. Pentobarbital-anesthetized male Wistar-Hannover rats were mechanically ventilated and subjected to thoracic surgery to perform a 6-min coronary artery occlusion and 5-min of reperfusion for the development of ischemia-induced ventricular arrhythmias (see Fig. 6A). The right jugular vein was cannulated for the administration of SZV-2649, vehicle, mexiletine or dofetilide, and the right carotid artery was used to measure blood pressure. The three-lead electrocardiogram and body temperature were continuously registered. Ten to twelve rats per group were administered vehicle (dimethyl sulfoxide, 200 µL/kg) or the studied drugs (see above), 2 min before the onset of ischemia as a slow i.v. bolus injection through the right jugular vein. At the end of 5-min reperfusion, hearts were isolated, mounted onto a Langendorff perfusion system, and after re-occluding the coronary artery, were perfused with 5-mL of 70% ethanol via the ascending aorta to delineate the ischemic risk zone. Then the left ventricles were cut along the demarcation lines of denatured area, and the sections were weighed to determine the area of risk to normalize the extent of the ischaemic insult. We evaluated the occurrence of ventricular arrhythmias based on the recommendations of the modified Lambeth Conventions published previously by Curtis et al. (2013)[63].

[1] = system: dog Purkinje fiber preparations; assay: Conventional microelectrode action potential recording, dog Purkinje fibers; settings: CL = 500 ms, n = 10
Description: The effects of SZV-2649 on action potentials were studied in dog ventricular, atrial and Purkinje fiber preparations.
Action potentials were recorded in cardiac ventricular trabeculae and papillary muscle preparations obtained from the right ventricles of Beagle dogs (10–15 kg) of either sex using the conventional microelectrode technique. Dogs were sacrificed by iv. sedation with xylazine (1 mg/kg), followed by i.v. administration of 50 mg/kg pentobarbital. After the cornea reflex disapeared the chest was opened, and the heart was rapidly removed. The heart was immediately rinsed in oxygenated modified Locke’s solution containing (in mM): NaCl 128.3, KCl 4, CaCl2 1.8, MgCl2 0.42, NaHCO3 21.4, and glucose 10. The pH of this solution was set between 7.35 and 7.4 when gassed with the mixture of 95% O2 and 5% CO2 at 37 °C.
Isolated papillary muscle or atrial trabecula and Purkinje fiber preparations were obtained and prepared from the right ventricle and were individually mounted in a tissue chamber with the volume of 50 ml. Each preparation was initially stimulated through a pair of platinum electrodes in contact with the preparation using rectangular current pulses of 2 ms duration. These stimuli were delivered at a constant cycle length of 1000 ms for at least 60 min allowing the preparation to equilibrate before the measurements were initiated. Transmembrane potentials were recorded using conventional glass microelectrodes, filled with 3 M KCl and having tip resistances of 5–20 MΩ, connected to the input of a high impedance electrometer (Experimetria, type 309, Budapest, Hungary) which was coupled to a dual beam oscilloscope. […] Attempts were made to maintain the same impalement throughout each experiment. In case an impalement became dislodged, adjustment was attempted, and if the action potential characteristics of the re-established impalement deviated by less than 5% from the previous measurement, the experiment continued[64]–[67]. All measurements were carried out at 37 °C.

[2] = i.v. 10 mg/kg, individual dogs, carbachol + burst, 10 mg/kg

## CC(N)COc1c(I)cc(C#N)cc1I.Cl (stereo not shown) [SZV-2649, 4-(2-aminopropoxy)-3,5-diiodobenzonitrile hydrochloride]
Anesthetized dogs; i.v. 10 mg/kg, individual dogs, carbachol + burst
  AF converted to SR?: Y
Anesthetized dogs; [2]
  AF converted to SR? (time printed in cell): 79 s and 175 s and 64 s and 286 s and 84 s and 194 s
  AF reinduced (number of the 25 burst stimuli): 0/25 and 1/25 and 2/25
  AF reinduced?: N and Y (2×)
Anesthetized dogs; i.v. 10 mg/kg, whole group
  Atrial fibrillation reinduced, share of burst stimuli: 2%
  Times atrial fibrillation was reinduced by the 25 burst stimuli delivered in each animal: 3 times
Anesthetized dogs; intravenous bolus 10 mg/kg
  Experimental animals in which atrial fibrillation was converted to sinus rhythm: 100%
Anesthetized rats; 6 min coronary artery occlusion / 5 min reperfusion, i.v. 2 min before ischemia
  Effect on incidence of ventricular arrhythmias: markedly reduced
Anesthetized rats; during reperfusion, over 50% in control animals
  Incidence of ventricular fibrillation (VF): 0%
Anesthetized rats; i.v. administration, anesthetized rats
  Effect on heart rate: significantly decreased
other
  melting point: 216 to 219 °C
[1]; 5 µM
  APA: 123.8 ± 2.3 mV
  APD50: 113.6 ± 5.6 ms
  APD90: 217.4 ± 5.1 ms
  RP: −84.7 ± 1.7 mV
  Vmax: 507.4 ± 53.4 V/s
[1]; 10 µM
  APA: 119.2 ± 3.3 mV
  APD50: 112.4 ± 7.9 ms
  APD90: 223.4 ± 5.6 ms
  RP: −86.0 ± 1.1 mV
  Vmax: 415.0 ± 28.9 V/s
[1]; […]
  Vmax: 581.1 ± 39.0 V/s
